The text below walks through data of patent US20220193185A1, “COMBINATION OF SYNTHETIC PEPTIDES WITH AFFINITY TO THE TGF-ß RECEPTOR AND WITH AFFINITY TO THE IL-10 RECEPTOR, PHARMACEUTICAL COMPOSITION AND THEIR USE AS IMMUNOMODULATORS IN THE TREATMENT OF AUTOIMMUNE, INFLAMMATORY OR ALLERGIC DISEASES” (Universidade Federal de Uberlândia, priority 2019, published 2022).

Data set [1] concerns TGF-β1 receptor on A549 cells. Briefly: ELISA on cells of the A549 line using anti-TGF-β1 antibody. The format is binding, human. As for the experimental part: The peptides described in this patent application were selected using the Phage Display (PD) methodology. The selection was performed by evaluating the ability of said peptides to recognize the TGF-β1 receptor on A549 cells, using an ELISA assay. MaxiSorp 96-well microtiter plates were coated with 1×10^6 cells diluted in PBS and incubated overnight at 4° C. Cells were blocked with 3% PBS-BSA for 1 h at 37° C., washed once with PBS and incubated with […] of each TGF-β1 mimetic peptide or 5 ng/ml of recombinant TGF-β1 for 1 h at 37° C. After washing, the plate was incubated for 1 h at 37° C. with anti-TGF-β1 antibody. The plate was washed and incubated with HRP-labeled anti-human IgG antibody for 1 h at 37° C. After washing, TMB substrate solution was added to the plate; the reaction was stopped by adding the 2N H2SO4 solution and read at 492 nm in a microplate reader.
To investigate whether the synthesized peptides could bind to cell receptors, an ELISA assay was performed on cells of the A549 line using commercial anti-TGF-β1 antibody.

The test system of data set [2] is TFGβRII/SMAD-dependent pathway. Briefly: HEK-blue-TGFβ reporter cells, SEAP production. Format: cell-based. The conditions noted are these: tested at 0.1, 1, 10 and 100 μM; for concentrations with statistically significant activation of the SMAD-dependent pathway (SEAP): 12 hours. As to the method:
After 12 hours of stimulation (FIG. 4A), all peptides were able to bind to the receptor.
The assay was performed in such a way that approximately 2.5×10^4 cells/well (100 μL) were treated with 100 μL of all synthetic peptides at different concentrations (100 μM, 10 μM, 1 μM and 0.1 μM) while rTGF-β1 ([…]) at 100 ng/ml was used as a positive control. After incubating the cells for 12, 24 and 48 hours at 37° C. in 5% CO2, […] of supernatant was transferred to a Greiner plate to which […] of Quanti-blue solution was added. The plate was incubated for 1 hour at 37° C. in 5% CO2 and the production of SEAP (secreted alkaline phosphatase) was detected at 655 nm. All tests were performed in triplicate.

The next data set relates to NFkB pathway. The data set is described as follows: NFkB expression in Jurkat cells, luciferase (TGF-β1 mimetic peptides). Format: cell-based, human. To be noted: peptide pretreatment 1 hour, then TNF-α, tested at 0.1-100 μM. As to the method:
Two different cell treatments were performed using Jurkat cells to analyze NFkB expression after 12, 24 and 48 hours. In the first test, Jurkat cells were treated only with peptides (no pathway activating molecule) at different concentrations to analyze the ability of each peptide to induce NFkB expression (Figure not shown). None of the tested concentrations induced any type of pathway activation.
The assay was carried out in such a way that a total of 3×10^5 cells/well ([…]) was pretreated with […] of a composition comprising one of the synthetic peptides in concentrations of 100 μM, 10 μM, 1 μM, and 0.1 μM for 1 hour at 37° C. in 5% CO2, followed by stimulation with TNF-α (200 ng/ml) for 12, 24 and 48 hours. The same stimuli were applied to cells pretreated with TNF-α (200 ng/ml) for 1 hour at 37° C. in 5% CO2 followed by stimulation with peptides at 100 μM, 10 μM, 1 μM and 0.1 μM for 12, 24 and 48 hours. Then, […] of supernatant was transferred to a white plate and Quanti-Luc reagent was used to measure the luciferase product. As a control, the peptides were tested at the same concentrations, without any pathway activating molecule, to investigate whether they could activate the NFkB pathway. TNF-α (200 ng/mL) was used as a positive control and rIL-10 (0.4 ng/mL) as a negative control. […].

The test system of another data set is TLR4 pathway. The data set is described as follows: HEK-Blue hTLR4 reporter cells, SEAP production (TGF-β1 mimetic peptides). Format: cell-based. The conditions noted are these: peptide pretreatment 1 hour, then LPS 100 ng/mL; 12 hours. As for the experimental part:
Similar to the treatment using Jurkat cells, peptides in compositions with different concentrations were also tested in HEK cells to investigate their ability to interfere with the TLR4 pathway.
To ensure that the peptides could not induce any activation when tested alone (no pathway activation molecule) only the peptides were added into the cell line and SEAP production was measured after 12 hours of treatment (Figure not shown).
The assay was performed using HEK-Blue hTLR4 reporter cells (InvivoGen) to investigate the action of peptides in the TLR4 pathway. A total of 2.3×10^4 cells/well ([…]) was pretreated with […] of composition comprising at least one of the synthetic peptides at concentrations of 100 μM, 10 μM, 1 μM, and 0.1 μM for 1 hour at 37° C. ° C. in 5% CO2 followed by LPS stimulation at 100 ng/mL for 12 hours. The same stimuli were applied to cells pretreated with LPS at 100 ng/ml for 1 hour at 37° C. in 5% CO2, followed by stimuli with peptides at 100 μM, 10 μM, 1 μM and 0.1 μM for 12 hours. Stimuli were added in Quanti-blue medium and SEAP production was measured at 655 nm. As a control, peptides at the same concentrations were tested alone to investigate whether they could activate the TLR4 pathway and LPS was used as a positive control.

The nature of data set [3]: aggregation behavior in solution by Dynamic Light Scattering (DLS). Format: physicochemical. To be noted: TGF-β1 mimetic peptides in solution.
Data set [4] concerns rat basophilic leukemia cells transfected with the human FIϵRI IgE receptor (hRBL). The data set is described as follows: IgE-mediated release in hRBL cells sensitized with serum from patients allergic to birch pollen, Bet v 1. The format is cell-based. To be noted: Pep 1-IL-10 at 1 μM; serum from seven birch pollen allergic donors. As for the experimental part: The effect of IL-10 mimetic peptides on IgE-mediated release was examined using rat basophilic leukemia cells transfected with the human FIϵRI IgE receptor (hRBL). As an example, we selected as an example Pep 1-IL-10 to show the data obtained. The hRBL cells were sensitized with serum from seven patients allergic to birch pollen. Cells were stimulated with the antigen and its interaction with immobilized IgEs caused a release of b-hexosaminidase.
When cells were treated with a composition comprising Pep 1-IL-10 at 1 μM (FIG. 21A) or rIL10 (FIG. 21B), the amount of Bet v 1 needed to induce the same amount of degranulation was higher when compared to cells treated only with Bet vl (P<0.05). Amount of rBet v 1 (ng/mL) required to induce half the release of b-hexosaminidase using serum from seven birch pollen allergic donors after treatment with Pep 1-IL-10 (A) (P<0.05) and rIL10 (B)*P<0.05.

“Pep 6-TGF-β1: synthetic peptide with affinity to the TGF-β receptor, SEQ ID N 06, free of disulfide bridges (HASKLQRSEPSGGGS)”: the “recognition of receptor-bound peptide by anti-TGF-β1 antibody compared to recombinant TGF-β1” value in data set [1] is recorded as “recognized as statistically different”. For the same molecule, the “concentrations with statistically significant activation of the SMAD-dependent pathway (SEAP)” value in data set [2] was 0.1 μM, 10 μM and 100 μM. The “concentrations with significant maintained activation of the SMAD-dependent pathway (SEAP)” value in data set [2] (24 hours) is 100 µM; in data set [2] (48 hours), 0.1 µM and 1 µM. For the same molecule, in the data set with NFkB pathway (24 hours), the “concentrations with statistically significant decrease of NFKB pathway activation vs TNF-α control” value amounted to 0.1 µM. The “concentrations with statistically significant reduction of TLR4 pathway activation” value in the data set with TLR4 pathway is 1 µM.

As to “Pep 7-TGF-β1: synthetic peptide with affinity to the TGF-β receptor, SEQ ID N 07, free of disulfide bridges (HASTIASTLHSGGGS)”, the “recognition of receptor-bound peptide by anti-TGF-β1 antibody compared to recombinant TGF-β1” value in data set [1] was “recognized as statistically different”. Also, the “concentrations with statistically significant activation of the SMAD-dependent pathway (SEAP)” value in data set [2] was 0.1 μM: 1 μM; 10 μM and 100 μM. Further, the hydrodynamic radius in data set [3] turned out to be 2.94 nm. Besides, the “concentrations with statistically significant decrease of NFKB pathway activation vs TNF-α control” value in the data set with NFkB pathway (24 hours) was 1 µM and 100 µM; in the data set on NFkB pathway (48 hours) it was 1 µM. Besides, the “concentrations with statistically significant reduction of TLR4 pathway activation” value in the data set with TLR4 pathway was 0.1 μM; 1 μM and 10 μM.

B1: rIL10: recombinant Interleukin-10, used as control (protein, UniProt P22301 19-178, looked up)
Interleukin-10: SPGQGTQSENSCTHFPGNLPNMLRDLRDAFSRVKTFFQMKDQLDNLLLKESLLEDFKGYLGCQALSEMIQFYLEEVMPQAENQDPDIKAHVNSLGENLKTLRLRLRRCHRFLPCENKSKAVEQVKNAFNKLQEKGIYKAMSEFDIFINYIEAYMTMKIRN
Take B1: the “amount of Bet v 1 needed to induce the same amount of degranulation (half the release of b-hexosaminidase) vs Bet v 1 only” value in data set [4] is given as “higher”.
